How the values were obtained:
EAC cells = experiment: Tumor growth inhibition study; conditions: individually, at the concentrations mentioned in Table 7
Experimental: Tumor growth inhibition study: For this study, the total number of EAC cells was counted. The ascites fluid containing cells were quantitatively removed from peritoneal cavity of two mice for a particular drug combination. The cavity was further washed twice with a fixed volume of 0.9% NaCl. The washing and the ascites fluid containing the cells were pooled and centrifuged at 2000×g for 5 min. The packed cell volumes were noted. A fixed amount of aliquot from the packed cells was appropriately diluted, and the number of cells was counted in a hemocytometer. Averages (X^−±SEM) were made of these two parameters, and percentage inhibitions [(1−T/C)×100] were calculated for each dose of different test combinations.

Ehrlich ascites cells = experiment: Loss of viability of Ehrlich ascites cells on incubation; conditions: read-out: reduction of viability of Ehrlich ascites cells

Row | SMILES | effect on EAC cells inoculated mice (EAC cells) | cytotoxicity at 200 µM (Ehrlich ascites cells) [%]
1 | O=C1O[C@H]([C@@H](O)CO)C(O)=C1O [ascorbic acid, reference compound] | no effect | 
2 | COc1ccc2[nH]cc(CCNC(C)=O)c2c1 [melatonin] |  | ~10
3 | CN(CC(=O)O)C(=N)N [creatine] | no effect | 

From US9198896B2 (priority 2006, dated 2015)
